In patent US5362634A, “Process for producing A83543 compounds” (DowElanco, priority 1991, dated 1994):
Values after ≈ are worked out from the molar mass of the structure shown. Like-named read-outs stand apart in the source and are kept apart here.

Key:
[1] = test system: CRW (Southern corn rootworm); experiment: Greenhouse test against CRW; type: in vivo, Diabrotica undecimpunctata howardi
Description: (§1) Each test compound was formulated by dissolving the compound in an acetone/alcohol (1:1) mixture containing 23 g of "Toximul R" (sulfonate/nonionic emulsifier blend) and 13 g of "Toximul S" (sulfonate/nonionic emulsifier blend) per liter. These mixtures were then diluted with water to give the indicated concentrations.
(§2) Additional insects were evaluated using similar formulations and evaluation procedures, with the exceptions noted.
(§3) After standard exposure periods, percent mortality was evaluated.

[2] = test system: SAW (Southern armyworm) larvae; experiment: Foliar/bushbean test against SAW larvae; type: in vivo; details: Spodoptera eridania, foliar; for inhibition at 0.5 ppm: 0.50 ppm
Description: as §1
[…] Other plants in the same treatment pot were left uninfested. The leaves were then sprayed with 5 mL of test solution using a DeVilbiss atomizing sprayer at 10 psi. Both surfaces of the leaves were covered until runoff and then allowed to dry for one hour. Two uninfested leaves were then excised and placed into a Petri dish containing Southern armyworm (Spodoptera eridania Cramer).
as §2
(§4) After standard exposure periods, percent mortality was evaluated. The following abbreviations are used:
^a Days between treatment and observation
^b Mean of replicates tested

adult BW (boll weevil) = experiment: Topical test against adult BW; type: in vivo; details: Anthonomus grandis, 72 h, 3 days
Description: as §1, §2, §4
^a One replicate; observed 3 days after treatment
^b Formulated A83543A (1 mL) poured over adult insects in a Petri

[3] = test system: mixture of soybean loopers (75%) and fall armyworm (25%); experiment: Field trial, soybean loopers and fall armyworm on soybean; type: in vivo
Description: A83543A was evaluated in field trials.

SAW (Southern armyworm) = experiment: Greenhouse test against SAW; type: in vivo; details: Spodoptera eridania, bushbean
adult stable fly = experiment: In vitro efficacy against adult stable fly; details: Stomoxys calcitrans
Source text: Tables XIX-XXI summarize in vitro studies with A83543A and A83543D.

[4] = Anthelmintic activity in sheep; type: in vivo
Nematospiroides dubius = experiment: Anthelmintic activity in mice experimentally infected with Nematospiroides dubius; type: in vivo; details: single oral gavage at 500 mg/kg
[5] = test system: first instar yellow fever mosquito larvae; experiment: In vitro mosquito larvicide test, first instar; details: Aedes aegypti, 24 h, lowest concentration with 100% inhibition after 24 hr, microtiter plates, read-out: Minimal Inhibitory Concentration
Source text: The A83543 components were active against yellow fever mosquito (Aedes aegypti) larvae in standard in vitro mosquito larvicide tests.

sheep = experiment: Toxicity to the host animal, sheep systemic test; type: in vivo; parameters: key: N: none
Description: Tests are carried out in sheep using the test method described supra in the Guinea Pig Test description. Test compound is administered by intraperitoneal or intravenous injection or intraruminally; blood samples are drawn at 24 hours in these tests.

[6] = test system: SM (twospotted spider mite); experiment: Greenhouse test against SM; type: in vivo; details: Tetranychus urticae
Description: as §1
Two-spotted spider mites (Tetranychus urticae Koch) and cotton or melon aphids (Aphis gossypii Glover) were introduced on squash cotyledons and allowed to establish on both leaf surfaces. Other plants in the same treatment pot were left uninfested. The leaves were then sprayed with 5 mL of test solution using a DeVilbiss atomizing sprayer at 10 psi. Both surfaces of the leaves were covered until runoff and then allowed to dry for one hour. Two uninfested leaves were then excised and placed into a Petri dish containing Southern armyworm (Spodoptera eridania Cramer).
as §3

CC[C@H]1CCC[C@H](O[C@H]2CC[C@H](N(C)C)[C@@H](C)O2)[C@@H](C)C(=O)C2=C[C@@H]3[C@@H](C=C[C@@H]4C[C@@H](O[C@@H]5O[C@@H](C)[C@H](OC)[C@@H](OC)[C@H]5OC)C[C@@H]34)[C@@H]2CC(=O)O1 [A83543A]
inhibition at 3 ppm ([1]; 3 ppm, second series): 0% | inhibition at 3.75 ppm ([1]; 3.75 ppm): 0% | inhibition at 6 ppm ([1]; 6 ppm, second series): 30% | inhibition at 7.5 ppm ([1]; 7.5 ppm): 10% | inhibition at 15 ppm ([1]; 15 ppm): 50% | inhibition at 30 ppm ([1]; 30 ppm): 100% | inhibition at 1 ppm ([2]; 72 h, neonate, 3 days): 10% | inhibition at 5 ppm ([2]; 72 h, neonate, 3 days): 40% | inhibition at 10 ppm ([2]; 72 h, neonate, 3 days): 100% | inhibition at 50 ppm ([2]; 72 h, neonate, 3 days): 100% | inhibition at 100 ppm ([2]; 72 h, neonate, 3 days): 100% | inhibition at 10 ppm ([2]; 96 h, fifth instar, 4 days): 0% | inhibition at 50 ppm ([2]; 96 h, fifth instar, 4 days): 0% | inhibition at 0.5 ppm ([2]; 96 h, neonate, 4 days): 0% | inhibition at 1 ppm ([2]; 96 h, neonate, 4 days): 66.7% | inhibition at 5 ppm ([2]; 96 h, neonate, 4 days): 100% | inhibition at 10 ppm ([2]; 96 h, neonate, 4 days): 100% | inhibition at 50 ppm ([2]; 96 h, neonate, 4 days): 100% | inhibition at 1 ppm ([2]; 96 h, second instar, 4 days): 0% | inhibition at 5 ppm ([2]; 96 h, second instar, 4 days): 0% | inhibition at 10 ppm ([2]; 96 h, second instar, 4 days): 80% | inhibition at 50 ppm ([2]; 96 h, second instar, 4 days): 80% | inhibition at 100 ppm ([2]; 96 h, second instar, 4 days): 100% | inhibition at 0.5 ppm ([2]; 96 h, third instar, 4 days): 0% | inhibition at 1 ppm ([2]; 96 h, third instar, 4 days): 0% | inhibition at 5 ppm ([2]; 96 h, third instar, 4 days): 40% | inhibition at 10 ppm ([2]; 96 h, third instar, 4 days): 100% | inhibition at 50 ppm ([2]; 96 h, third instar, 4 days): 100% | inhibition at 1 ppm (adult BW (boll weevil); 1.00 ppm): 0% | inhibition at 5 ppm (adult BW (boll weevil); 5.00 ppm): 20% | inhibition at 10 ppm (adult BW (boll weevil); 10.00 ppm): 20% | inhibition at 50 ppm (adult BW (boll weevil); 50.00 ppm): 100% | inhibition at 100 ppm (adult BW (boll weevil); 100.0 ppm): 100% | activity in field trials [3]: showed activity | inhibition at 12.5 ppm (SAW (Southern armyworm); 12.5 ppm): 0% | inhibition at 25 ppm (SAW (Southern armyworm); 25 ppm): 40% | inhibition at 50 ppm (SAW (Southern armyworm); 50 ppm): 80% | inhibition at 100 ppm (SAW (Southern armyworm); 100 ppm): 100% | mortality at 0.5 ppm (adult stable fly; 24 hour): 0% | mortality at 0.5 ppm (adult stable fly; 48 hour): 10% | mortality at 1 ppm (adult stable fly; 24 hour): 10% | mortality at 1 ppm (adult stable fly; 48 hour): 60% | mortality at 2 ppm (adult stable fly; 24 hour): 70% | mortality at 2 ppm (adult stable fly; 48 hour): 90% | mortality at 5 ppm (adult stable fly; 24 hour): 80% | mortality at 5 ppm (adult stable fly; 48 hour): 100% | mortality at 10 ppm (adult stable fly; 24 hour): 100% | mortality at 10 ppm (adult stable fly; 48 hour): 90% | mortality at 25 ppm (adult stable fly; 24 hour): 100% | mortality at 25 ppm (adult stable fly; 48 hour): 100% | mortality at 50 ppm (adult stable fly; 24 hour): 100% | mortality at 50 ppm (adult stable fly; 48 hour): 100% | mortality at 100 ppm (adult stable fly; 24 hour): 100% | mortality at 100 ppm (adult stable fly; 48 hour): 100% | anthelmintic activity ([4]; single intraperitoneal dose of 50 mg/kg): did not show anthelmintic activity | anthelmintic activity ([4]; single intraruminal dose of 50 mg/kg): did not show anthelmintic activity | anthelmintic activity (Nematospiroides dubius): did not show anthelmintic activity | MIC [5]: 0.016 µg/mL (≈ 0.0219 µM) | MIC ([5]; second of two lots): 0.031 µg/mL (≈ 0.0424 µM) | Tox (sheep; 1.0 mg/kg IV): N | Tox (sheep; 10 mg/kg IP): N | Tox (sheep; 10 mg/kg IR): N | Tox (sheep; 30 mg/kg IP): N | Tox (sheep; 30 mg/kg IR): N | Tox (sheep; 50 mg/kg IP): N | Tox (sheep; 50 mg/kg IR): N | Tox (sheep; 2 × 25 mg/kg IR): N | inhibition at 6.25 ppm ([6]; bushbean, 6.25 ppm): 0% | inhibition at 12.5 ppm ([6]; bushbean, 12.5 ppm): 10% | inhibition at 25 ppm ([6]; bushbean, 25 ppm): 30% | inhibition at 50 ppm ([6]; bushbean, 50 ppm): 80% | inhibition at 100 ppm ([6]; bushbean, 100 ppm): 100% | inhibition at 31.25 ppm ([6]; squash, 31.25 ppm): 0% | inhibition at 62.5 ppm ([6]; squash, 62.5 ppm): 20% | inhibition at 125 ppm ([6]; squash, 125 ppm): 40% | inhibition at 250 ppm ([6]; squash, 250 ppm): 70%
